Experiments:
[1] = Compound was evaluated in vivo for the reduction of liver cholesterol ester level at the rate 10 mpk; format: functional
[2] = Compound was evaluated in vivo for the reduction of liver cholesterol ester level at the rate 5 mpk; format: functional
Cricetinae gen. sp. [3] = assay: Effective concentration was evaluated when liver cholesterol ester level reduction was 17%; format: functional, Cricetulus griseus
Cricetinae gen. sp. [4] = assay: Effective concentration was evaluated when liver cholesterol ester level reduction was 87%; format: functional, Cricetulus griseus
[5] = Compound was evaluated in vivo for the reduction of liver cholesterol ester level at the rate 50 mpk; format: functional

| Structure (SMILES) | L/CE [1] [%] | L/CE [2] [%] | L/CE [5] [%] | further results |
| --- | --- | --- | --- | --- |
| COc1ccc([C@H]2[C@@H](CCCc3ccccc3)C(=O)N2c2ccc(OC)cc2)cc1 | 0 | – | – | – |
| COc1ccc([C@H]2[C@H](CCCc3ccccc3)C(=O)N2c2ccc(OC)cc2)cc1 | – | 0 | – | – |
| COc1ccc([C@@H]2N(c3ccc(OC)cc3)C(=O)C23CCC(c2ccccc2)CC3)cc1 (stereo partly drawn) | – | – | – | ED50 (Cricetinae gen. sp. [3]): 3 mg/kg; ED50 (Cricetinae gen. sp. [4]): > 50 mg/kg |
| COc1ccc([C@@H]2[C@H](CCCc3ccccc3)C(=O)N2c2ccc(OC)cc2)cc1 | 69 | – | 0 | – |
| COc1ccc([C@@H]2[C@@H](CCCc3ccccc3)C(=O)N2c2ccc(OC)cc2)cc1 [SCH-48461] | – | 66 | 0 | – |

From ChEMBL document CHEMBL1128206, “Substituted 2-azaspiro[5.3]nonan-1-ones as potent cholesterol absorption inhibitors: defining a binding conformation for SCH 48461” (1995)
